System: 873145-292-R-J1-PDC complex spheroid viability
Assay: Anticancer human tumor 873145-292-R-J1-PDC patient-derived renal clear cell carcinoma cell line growth inhibition [POLQ]
Details: for IC50: curve of first compound; for viability, T/C: stronger effect = lower value
Outline: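 Three-cell-type spheroids modelling solid tumor plus stroma served as the readout system; POL inhibitors were tested individually and in combination, concentration ranges set by clinical Cmax where known.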

[1] = second compound 0.0316 µM, first compound 0.000316 µM
[2] = second compound 0.0316 µM, first compound 0.001 µM
[3] = second compound 0.0316 µM, first compound 0.00316 µM
[4] = second compound 0.0316 µM, first compound 0.01 µM
[5] = second compound 0.0316 µM, first compound 0.0316 µM
[6] = second compound 0.0316 µM, first compound 0.1 µM
[7] = second compound 0.1 µM, first compound 0.000316 µM
[8] = second compound 0.1 µM, first compound 0.001 µM
[9] = second compound 0.1 µM, first compound 0.00316 µM
[10] = second compound 0.1 µM, first compound 0.01 µM
[11] = second compound 0.1 µM, first compound 0.0316 µM
[12] = second compound 0.1 µM, first compound 0.1 µM
[13] = second compound 0.316 µM, first compound 0.000316 µM
[14] = second compound 0.316 µM, first compound 0.001 µM
[15] = second compound 0.316 µM, first compound 0.00316 µM
[16] = second compound 0.316 µM, first compound 0.01 µM
[17] = second compound 0.316 µM, first compound 0.0316 µM
[18] = second compound 0.316 µM, first compound 0.1 µM
[19] = second compound 1 µM, first compound 0.000316 µM
[20] = second compound 1 µM, first compound 0.001 µM
[21] = second compound 1 µM, first compound 0.00316 µM
[22] = second compound 1 µM, first compound 0.01 µM
[23] = second compound 1 µM, first compound 0.0316 µM
[24] = second compound 1 µM, first compound 0.1 µM
[25] = second compound 3.16 µM, first compound 0.000316 µM
[26] = second compound 3.16 µM, first compound 0.001 µM
[27] = second compound 3.16 µM, first compound 0.00316 µM
[28] = second compound 3.16 µM, first compound 0.01 µM
[29] = second compound 3.16 µM, first compound 0.0316 µM
[30] = second compound 3.16 µM, first compound 0.1 µM
[31] = second compound 10 µM, first compound 0.000316 µM
[32] = second compound 10 µM, first compound 0.001 µM
[33] = second compound 10 µM, first compound 0.00316 µM
[34] = second compound 10 µM, first compound 0.01 µM
[35] = second compound 10 µM, first compound 0.0316 µM
[36] = second compound 10 µM, first compound 0.1 µM
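Also: spheroids exposed to compounds for 7 days before viability readout.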
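For viability, T/C in this document: luminescence signal used as surrogate for viable cell content; 100% = DMSO vehicle control viability.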

For `Cn1ncnc1[C@H]1c2n[nH]c(=O)c3cc(F)cc(c23)N[C@@H]1c1ccc(F)cc1` + Nc1ccc(C#CCN(C(=O)Cc2ncc(C(F)(F)F)cc2C(F)(F)F)c2ccc(F)cc2)nn1, the IC50 (second compound 0.0316 µM) was greater than 100 nM, the IC50 (second compound 0.1 µM) was greater than 100 nM and the IC50 (second compound 0.316 µM) was greater than 100 nM. For the same compound, the IC50 (second compound 1 µM) was greater than 100 nM, the IC50 (second compound 3.16 µM) was greater than 100 nM and the IC50 (second compound 10 µM) was greater than 100 nM. For the same compound, the viability, T/C [1] was 124%, the viability, T/C [2] was 103% and the viability, T/C [3] was 90.9%. The viability, T/C [4] was 99.3%, the viability, T/C [5] was 106% and the viability, T/C [6] was 104%. It also gave a viability, T/C [7] of 105%, a viability, T/C [8] of 99.3% and a viability, T/C [9] of 107%. For the same compound, the viability, T/C [10] was 91.8%, the viability, T/C [11] was 102% and the viability, T/C [12] was 99.6%. For the same compound, the viability, T/C [13] was 97%, the viability, T/C [14] was 108% and the viability, T/C [15] was 99.2%. For the same compound, the viability, T/C [16] was 96.7%, the viability, T/C [17] was 98.8% and the viability, T/C [18] was 96.8%. It also gave a viability, T/C [19] of 94.9%, a viability, T/C [20] of 100% and a viability, T/C [21] of 96.1%. For the same compound, the viability, T/C [22] was 97.1%, the viability, T/C [23] was 95.9% and the viability, T/C [24] was 96.3%. For the same compound, the viability, T/C [25] was 92.1%, the viability, T/C [26] was 108% and the viability, T/C [27] was 97.2%. The viability, T/C [28] was 95.3%, the viability, T/C [29] was 95.8% and the viability, T/C [30] was 95.8%. It also gave a viability, T/C [31] of 107%, a viability, T/C [32] of 110% and a viability, T/C [33] of 108%. It also gave a viability, T/C [34] of 117%, a viability, T/C [35] of 107% and a viability, T/C [36] of 103%.

`COc1ccc([C@@H](O)c2cc(-c3ncnc4cc(N5CCOCC5)ccc34)c(F)cc2Cl)nn1` + COC1C(OC(N)=O)C(O)C(Oc2ccc3c(O)c(NC(=O)c4ccc(O)c(CC=C(C)C)c4)c(=O)oc3c2C)OC1(C)C showed an IC50 (second compound 0.0316 µM) of 4410 nM, an IC50 (second compound 0.1 µM) of 4100 nM and an IC50 (second compound 0.316 µM) of 3220 nM. For the same compound, the IC50 (second compound 1 µM) was 3960 nM, the IC50 (second compound 3.16 µM) was 6140 nM and the IC50 (second compound 10 µM) was 5250 nM. The viability, T/C [5] was 92%, the viability, T/C [6] was 97.4% and the viability, T/C (second compound 0.0316 µM, first compound 0.316 µM) was 81.2%. It also gave a viability, T/C (second compound 0.0316 µM, first compound 1 µM) of 69.8%, a viability, T/C (second compound 0.0316 µM, first compound 3.16 µM) of 50.3% and a viability, T/C (second compound 0.0316 µM, first compound 10 µM) of 46.1%. The viability, T/C [11] was 94.3%, the viability, T/C [12] was 87.9% and the viability, T/C (second compound 0.1 µM, first compound 0.316 µM) was 83.1%. It also gave a viability, T/C (second compound 0.1 µM, first compound 1 µM) of 71.3%, a viability, T/C (second compound 0.1 µM, first compound 3.16 µM) of 51.7% and a viability, T/C (second compound 0.1 µM, first compound 10 µM) of 40.3%. The viability, T/C [17] was 108%, the viability, T/C [18] was 93% and the viability, T/C (second compound 0.316 µM, first compound 0.316 µM) was 76.1%. For the same compound, the viability, T/C (second compound 0.316 µM, first compound 1 µM) was 64.9%, the viability, T/C (second compound 0.316 µM, first compound 3.16 µM) was 51.3% and the viability, T/C (second compound 0.316 µM, first compound 10 µM) was 36.6%. The viability, T/C [23] was 92.4%, the viability, T/C [24] was 85.5% and the viability, T/C (second compound 1 µM, first compound 0.316 µM) was 83.5%. For the same compound, the viability, T/C (second compound 1 µM, first compound 1 µM) was 68.1%, the viability, T/C (second compound 1 µM, first compound 3.16 µM) was 52.5% and the viability, T/C (second compound 1 µM, first compound 10 µM) was 40.1%. It also gave a viability, T/C [29] of 89.1%, a viability, T/C [30] of 92.4% and a viability, T/C (second compound 3.16 µM, first compound 0.316 µM) of 85.7%. For the same compound, the viability, T/C (second compound 3.16 µM, first compound 1 µM) was 65.1%, the viability, T/C (second compound 3.16 µM, first compound 3.16 µM) was 62.9% and the viability, T/C (second compound 3.16 µM, first compound 10 µM) was 42.7%. The viability, T/C [35] was 99.1%, the viability, T/C [36] was 90% and the viability, T/C (second compound 10 µM, first compound 0.316 µM) was 88.7%. For the same compound, the viability, T/C (second compound 10 µM, first compound 1 µM) was 70.4%, the viability, T/C (second compound 10 µM, first compound 3.16 µM) was 58.9% and the viability, T/C (second compound 10 µM, first compound 10 µM) was 39.9%.

`CC[C@@]1(O)C(=O)OCc2c1cc1n(c2=O)Cc2cc3c(CN(C)C)c(O)ccc3nc2-1` + Cc1cccc(N(C)C(=O)C2C(O)CCN2c2nc(C)cc(C(F)(F)F)c2C#N)c1 showed an IC50 (second compound 0.0316 µM) greater than 100 nM, an IC50 (second compound 0.1 µM) greater than 100 nM and an IC50 (second compound 0.316 µM) of 92.2 nM. For the same compound, the IC50 (second compound 1 µM) was greater than 100 nM, the IC50 (second compound 3.16 µM) was greater than 100 nM and the IC50 (second compound 10 µM) was greater than 100 nM. It also gave a viability, T/C [1] of 105%, a viability, T/C [2] of 95.2% and a viability, T/C [3] of 89.6%. It also gave a viability, T/C [4] of 104%, a viability, T/C [5] of 73.7% and a viability, T/C [6] of 52.5%. For the same compound, the viability, T/C [7] was 93.3%, the viability, T/C [8] was 101% and the viability, T/C [9] was 97.8%. The viability, T/C [10] was 101%, the viability, T/C [11] was 74.4% and the viability, T/C [12] was 52.2%. The viability, T/C [13] was 94.9%, the viability, T/C [14] was 113% and the viability, T/C [15] was 96.8%. For the same compound, the viability, T/C [16] was 97.3%, the viability, T/C [17] was 78.7% and the viability, T/C [18] was 47.8%. For the same compound, the viability, T/C [19] was 101%, the viability, T/C [20] was 98.9% and the viability, T/C [21] was 87.9%. It also gave a viability, T/C [22] of 104%, a viability, T/C [23] of 75% and a viability, T/C [24] of 59.2%. For the same compound, the viability, T/C [25] was 89.6%, the viability, T/C [26] was 91.5% and the viability, T/C [27] was 92.8%. It also gave a viability, T/C [28] of 97.8%, a viability, T/C [29] of 78% and a viability, T/C [30] of 63.9%. The viability, T/C [31] was 93.4%, the viability, T/C [32] was 95.2% and the viability, T/C [33] was 94.5%. The viability, T/C [34] was 98.8%, the viability, T/C [35] was 81.8% and the viability, T/C [36] was 54.5%.
